Consider 10 compounds from patent publication EP0019589A1, “Tripeptide derivatives and their use in a process for determining enzymes” (Pentapharm A.G., priority 1979, dated 1980).

The structures appear in SMILES notation. Non-standard residues stand in square brackets, D forms with d. Residues, ends and D or L forms follow the SMILES beside them. *: point of attachment. Cha = N[C@@H](CC1CCCCC1)C(=O)O; dCha = N[C@H](CC1CCCCC1)C(=O)O; dChg = N[C@@H](C(=O)O)C1CCCCC1; dPhg = N[C@@H](C(=O)O)c1ccccc1; pNA = O=[N+]([O-])c1ccc(N*)cc1; Chg = N[C@H](C(=O)O)C1CCCCC1

Assay type in all cases: biochemical
One assay concerns the target T1, Urinkallikrein (Homo sapiens, UniProt P06870).
T1 construct: 1 ml Urin und 1 ml TRIS-Imidazol-Puffer mit pH 7,9; from tissue; host or cells: human urine
Kind of assay: Cleavage of chromogenic substrate by urinary kallikrein in human urine. Conditions: 1 ml human urine (pooled morning urine of healthy persons), per min; Substratkonzentration 2 x 10^-4 molar. How it is done: 1. Bestimmung von Urinkallikrein.
1 ml Urin und 1 ml TRIS-Imidazol-Puffer mit pH 7,9 und Ionenstärke 1,0 werden 5 Min. bei 37°C inkubiert undcänn zentrifugiert, um Sedimente zu entfernen.
In einer-Plastikküvette werden 1,4 ml dest. H20 von 37°C und 0,4 ml des Zentrifugats gut gemischt. Zu dieser Mischung gibt man 0,2 ml einer 2 x 10^-3 molaren wässrigen Substratlösung und durchmischt die Komponenten schnell. Dieses Gemisch wird genau 15 Min. bei 37°C inkubiert. Dann wird dem Reaktionsgemisch 0,2 ml Eisessig zugemischt, um die Enzymreaktion zu unterbrechen. Zur Farbmessung verwendet man eine Vergleichsprobe (Blindprobe), die aus den gleichen Komponenten zusammengesetzt ist, wobei jedoch der Eisessig vor Zugabe des Substrates zugesetzt wird, um die Enzymreaktion zu verhindern. Dann wird bei 405 nm photometrisch oder spektrophotometrisch die Menge der gebildeten farbigen Verbindung RNH 2 aus der Differenz zwischen der Blindprobe und der zu bestimmenden Probe ermittelt. Aus dem ermittelten Wert wird die Urinkallikreinaktivität im Urin nach der folgenden Formel berechnet: [formula] • Δ OD = Zunahme der optischen Dichte bei 405 nm während 15 Min. • V = Totalvolumen des Bestimmungsansatzes = 2,2 ml • 1000 = Umrechnungsfaktor zur Umwandlung von U in mU • F = Verdünnungsfaktor des Urins (2) • v = Volumen der Probe = 0,4 ml • ε = Extinktionskoeffizient dividiert durch 1000 = 10,4
Bei der oben beschriebenen Bestimmungsmethode misst man somit die Summe der Aktivitäten von Urinkallikrein und Urokinase. Um die genaue Urinkallikreinaktivität zu erhalten, muss man die Urokinaseaktivität abziehen, welche dadurch bestimmt werden kann, dass man in einem Vergleichsversuch durch Zugabe von 0,075 Einheiten Trypsininhibitor (Trypsininhibitor aus Rinderlunge) pro ml Puffer die Urinkallikreinaktivität vollständig hemmt und nur die Urokinaseaktivität misst.
(§1) Bei der Messung des durch die enzymatische Hydrolyse des Substrates gebildeten Spaltproduktes RrNH2 geht man von der Voraussetzung aus, dass das Spaltprodukt ein UV-Spektrum besitzt, das von demjenigen des Substrates verschieden und in Richtung höherer Wellenlängen verschoben ist. Die Absorption des Substrates bei 405 nm ist praktisch Null. p-Nitroanilin als Spaltprodukt weist ein Absorptionsmaximum bei 380 nm und einen molaren Extinktionskoeffizienten von 13'200 auf. Bei 405 nm ist der Extinktionskoeffizient nur wenig niedriger, d.h. […] Der Grad der enzymatischen Hydrolyse des Substrates, welcher der Menge des abgespaltenen p-Nitroanilins proportional ist, lässt sich durch spektrophotometrische Messung bei 405 nm bestimmen. Auch bei Anwesenheit eines Ueberschusses an Substrat wird die Messung bei 405 nm nicht gestört.
(§2) Bei den Substraten, die als chromogene Gruppe eine 2-Naphthylamino-, 4-Methoxy-2-naphthylamino-, 4-Methyl-cumaryl-(7)-amino- oder 1,3-Di(methoxycarbonyl)-phenyl-(5)-amino-Gruppe enthalten, wird die Menge des Spaltproduktes R-NH2 durch Fluoreszenzspektrophotometrie gemessen. In einem aus Enzym, Puffer und Substrat bestehenden Testsystem misst man kontinuierlich das energieärmere emittierte Licht bei 400-470 nm, nachdem man das gebildete fluoreszierende Spaltprodukt mit energiereicherem Licht erregt hat. Die pro Zeiteinheit gebildete Menge Spaltprodukt ist ein Mass für die vorhandene Enzymaktivität. 1 µMol Spaltprodukt pro Minute entspricht definitionsgemäss 1 Enzym-Einheit, bezogen auf ein gegebenes Substrat.

Assay [1] addresses T2, Submandibularis-Kallikrein (Homo sapiens, UniProt P06870).
T2 construct: Man mischt 0,5 ml Sputum mit 2 ml TRIS-Imidazol-Puffer; from tissue; host or cells: human sputum
Kind of assay: Cleavage of chromogenic substrate by submandibular (glandular) kallikrein in human sputum. Particulars: 1 ml human sputum, per min; Substratkonzentration 2 x 10^-4 molar. How it is done: 2. Bestimmung des Glandulärkallikreins im Sputum: • Man mischt 0,5 ml Sputum mit 2 ml TRIS-Imidazol-Puffer (Ionenstärke 1,0) und präinkubiert die Mischung 5 Min. bei 37°C. Das Inkubat wird zentrifugiert. In eine Testküvette wird 1,5 ml dest. H2O von 37°C vorgelegt und mit 0,25 ml des Zentrifugats versetzt. Die Komponenten werden gut gemischt. Dann wird 0,2 ml 2 x 10-^3 molare wässrige Substratlösung zugesetzt und gemischt. Dann wird bei 405 nm die Extinktions- änderung kontinuierlich mittels eines Schreibers während 5-10 Min. verfolgt. Aus dem ermittelten Δ OD pro Min. wird mittels der nachstehenden Formel die Kallikreinaktivität pro ml Sputum in mU errechnet: [formula] • F = 5 • V = 1,95 • v = 0,25 • 1 U (Einheit) = Enzymmenge, die während 1 Min. 1 µMol Substrat unter optimalen oder sonst festgelegten Bedingungen in Bezug auf pH, Ionenstärke, Temperatur und Substratkonzentration zu spalten vermag
as §1, with “gestört. […]” for “gestört.”

The next assay has as its target T3, Humanplasmin (Homo sapiens, UniProt P00747).
T3 construct: da bei der Aktivierung aus 1 Molekül Plasminogen 1 Molekül Plasmin entsteht
Put plainly: Cleavage of chromogenic substrate by human plasmin. Conditions: 1 CU-Einheit human plasmin, per min; Substratkonzentration 2 x 10^-4 molar. How it is done:
3. Bestimmung von Plasmin:
Man mischt 1,7 ml TRIS-Imidazol-Puffer (pH 7,5, Ionenstärke 0,2) bei 37°C mit 0,1 ml einer Lösung von Plasmin in 25%igem Glycerin und inkubiert die Mischung während 1 Min. bei 37°C. Dann gibt man der Mischung 0,2 ml einer wässrigen 2 x 10^-3 molaren Substxatlösung von 37°C zu und durchmischt das Ganze schnell. Man ermittelt dann kontinuierlich die pro Zeiteinheit aus dem Substrat freigesetzte Menge des Spaltproduktes R-NH2. Aus dem pro Min. ermittelten Wert berechnet man dann die Plasminaktivität pro ml Probe in mU nach der folgenden Formel: [formula] • ΔE = pro Min. freigesetzte Menge des Spaltproduktes • V = Totalvolumen des Testansatzes • v = Volumen der Probe • = Extinktionskoeffizient dividiert durch 1000
as §1, §2

Another assay deals with T4, Humanthrombin (Homo sapiens, UniProt P00734).
T4 construct: Humanplasmin und hu-manem NIH-Thrombin
Put plainly: Cleavage of chromogenic substrate by human NIH thrombin. Conditions: 1 NIH-Einheit human thrombin, per min; Substratkonzentration 2 x 10^-4 molar.
Excerpt: as §1, §2

T1 sequence (P06870 25-262): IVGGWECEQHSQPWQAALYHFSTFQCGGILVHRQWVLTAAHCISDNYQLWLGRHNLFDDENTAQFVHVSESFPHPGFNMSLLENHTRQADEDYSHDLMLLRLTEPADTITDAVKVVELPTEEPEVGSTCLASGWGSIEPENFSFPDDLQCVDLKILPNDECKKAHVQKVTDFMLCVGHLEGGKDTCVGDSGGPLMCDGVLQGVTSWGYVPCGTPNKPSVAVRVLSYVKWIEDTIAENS
T2 sequence (P06870 25-262): as above
T3 sequence (P00747 581-810 limits assumed): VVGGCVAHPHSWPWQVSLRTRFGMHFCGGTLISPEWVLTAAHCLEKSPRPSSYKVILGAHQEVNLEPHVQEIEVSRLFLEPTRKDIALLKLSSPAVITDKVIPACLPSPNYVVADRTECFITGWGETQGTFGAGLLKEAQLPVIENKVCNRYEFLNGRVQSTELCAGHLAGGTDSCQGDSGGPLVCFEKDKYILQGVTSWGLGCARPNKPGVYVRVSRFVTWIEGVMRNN
T3 sequence (P00747 97-580 partner limits assumed): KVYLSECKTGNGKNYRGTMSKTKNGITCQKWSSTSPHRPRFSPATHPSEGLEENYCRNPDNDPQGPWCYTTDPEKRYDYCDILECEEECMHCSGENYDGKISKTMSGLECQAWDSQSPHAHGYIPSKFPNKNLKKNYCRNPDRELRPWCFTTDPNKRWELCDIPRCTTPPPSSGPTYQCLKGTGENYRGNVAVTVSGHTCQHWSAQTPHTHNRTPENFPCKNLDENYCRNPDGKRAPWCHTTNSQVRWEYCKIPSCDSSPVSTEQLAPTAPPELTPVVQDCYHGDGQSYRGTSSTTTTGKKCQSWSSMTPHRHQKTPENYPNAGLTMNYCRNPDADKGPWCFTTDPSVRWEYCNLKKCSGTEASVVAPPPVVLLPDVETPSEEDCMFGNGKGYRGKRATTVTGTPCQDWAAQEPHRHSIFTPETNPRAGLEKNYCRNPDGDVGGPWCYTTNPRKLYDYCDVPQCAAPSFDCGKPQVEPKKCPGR

As to `N=C(N)NCCC[C@H](NC(=O)[C@@H]1CCCN1C(=O)[C@H](N)CC1CCCCC1)C(=O)Nc1ccc([N+](=O)[O-])cc1` [Beispiel 19, 2HBr.H-D-CHA-Pro-Arg-pNA] (H-[dCha]-Pro-Arg-pNA), at Urinkallikrein, the “Menge des durch 1 ml Humanurin pro Min. freigesetzten Spaltproduktes R-NH2 in Nanomol (Urinkallikrein)” value is given as 1,40 Nanomol. For the same compound, the “Menge des durch 1 ml Humansputum pro Min. freigesetzten Spaltproduktes R-NH2 in Nanomol (Submandibularis-Kallikrein)” value in assay [1] is listed as 8,1 Nanomol. In addition, the “Menge des durch 1 CU-Einheit Humanplasmin pro Min. freigesetzten Spaltproduktes R-NH2 in Nanomol (Humanplasmin)” value at Humanplasmin was determined as 1200 Nanomol. At Humanthrombin, the “Menge des durch 1 NIH-Einheit Thrombin pro Min. freigesetzten Spaltproduktes R-NH2 in Nanomol (Humanthrombin)” value was 54,4 Nanomol.
For `NCCCC[C@H](NC(=O)[C@H](CC1CCCCC1)NC(=O)[C@H](N)C1CCCCC1)C(=O)Nc1ccc([N+](=O)[O-])cc1` [Beispiel 20, 2HBr.H-D-CHG-CHA-Lys-pNA] (H-[dChg]-[Cha]-Lys-pNA), the “Menge des durch 1 ml Humanurin pro Min. freigesetzten Spaltproduktes R-NH2 in Nanomol (Urinkallikrein)” value on Urinkallikrein was 0,28 Nanomol. The “Menge des durch 1 ml Humansputum pro Min. freigesetzten Spaltproduktes R-NH2 in Nanomol (Submandibularis-Kallikrein)” value in assay [1] is reported as 4,4 Nanomol. Moreover, the “Menge des durch 1 CU-Einheit Humanplasmin pro Min. freigesetzten Spaltproduktes R-NH2 in Nanomol (Humanplasmin)” value at Humanplasmin amounted to 500 Nanomol. At Humanthrombin, the “Menge des durch 1 NIH-Einheit Thrombin pro Min. freigesetzten Spaltproduktes R-NH2 in Nanomol (Humanthrombin)” value is 0,99 Nanomol.
Consider `CC(C)C[C@H](NC(=O)[C@H](N)C1CCCCC1)C(=O)N[C@@H](CCCCN)C(=O)Nc1ccc([N+](=O)[O-])cc1` [Beispiel 21, 2HBr.H-D-CHG-Leu-Lys-pNA] (H-[dChg]-Leu-Lys-pNA), for which the “Menge des durch 1 ml Humanurin pro Min. freigesetzten Spaltproduktes R-NH2 in Nanomol (Urinkallikrein)” value on Urinkallikrein was 0,40 Nanomol. Besides, the “Menge des durch 1 ml Humansputum pro Min. freigesetzten Spaltproduktes R-NH2 in Nanomol (Submandibularis-Kallikrein)” value in assay [1] is given as 2,2 Nanomol. Further, on Humanplasmin, the “Menge des durch 1 CU-Einheit Humanplasmin pro Min. freigesetzten Spaltproduktes R-NH2 in Nanomol (Humanplasmin)” value is listed as 460 Nanomol. Moreover, the “Menge des durch 1 NIH-Einheit Thrombin pro Min. freigesetzten Spaltproduktes R-NH2 in Nanomol (Humanthrombin)” value on Humanthrombin is recorded as 1,20 Nanomol.
Regarding `N=C(N)NCCC[C@H](NC(=O)[C@H](CC1CCCCC1)NC(=O)[C@H]1CCCN1)C(=O)Nc1ccc([N+](=O)[O-])cc1` [Beispiel 22, 2HBr.H-D-Pro-CHA-Arg-pNA] (H-[dP]-[Cha]-Arg-pNA), the “Menge des durch 1 ml Humanurin pro Min. freigesetzten Spaltproduktes R-NH2 in Nanomol (Urinkallikrein)” value on Urinkallikrein is 0,63 Nanomol. Also, the “Menge des durch 1 ml Humansputum pro Min. freigesetzten Spaltproduktes R-NH2 in Nanomol (Submandibularis-Kallikrein)” value in assay [1] is 11,7 Nanomol. In addition, the “Menge des durch 1 CU-Einheit Humanplasmin pro Min. freigesetzten Spaltproduktes R-NH2 in Nanomol (Humanplasmin)” value at Humanplasmin turned out to be 250 Nanomol. In addition, the “Menge des durch 1 NIH-Einheit Thrombin pro Min. freigesetzten Spaltproduktes R-NH2 in Nanomol (Humanthrombin)” value at Humanthrombin was 0,75 Nanomol.
Take `N=C(N)NCCC[C@H](NC(=O)[C@@H](NC(=O)[C@H]1CCCN1)C1CCCCC1)C(=O)Nc1ccc([N+](=O)[O-])cc1` [Beispiel 24, 2HBr.H-D-Pro-CHG-Arg-pNA] (H-[dP]-[Chg]-Arg-pNA): the “Menge des durch 1 ml Humanurin pro Min. freigesetzten Spaltproduktes R-NH2 in Nanomol (Urinkallikrein)” value at Urinkallikrein is 1,87 Nanomol. Besides, the “Menge des durch 1 ml Humansputum pro Min. freigesetzten Spaltproduktes R-NH2 in Nanomol (Submandibularis-Kallikrein)” value in assay [1] was 5,7 Nanomol. Moreover, the “Menge des durch 1 CU-Einheit Humanplasmin pro Min. freigesetzten Spaltproduktes R-NH2 in Nanomol (Humanplasmin)” value at Humanplasmin was 10 Nanomol. In addition, the “Menge des durch 1 NIH-Einheit Thrombin pro Min. freigesetzten Spaltproduktes R-NH2 in Nanomol (Humanthrombin)” value on Humanthrombin is given as 0,29 Nanomol.
In the case of `N=C(N)NCCC[C@H](NC(=O)[C@H](CC1CCC(O)CC1)NC(=O)[C@H]1CCCN1)C(=O)Nc1ccc([N+](=O)[O-])cc1` (stereo partly drawn) [Beispiel 25, 2HBr.H-D-Pro-CHT-Arg-pNA], the “Menge des durch 1 ml Humanurin pro Min. freigesetzten Spaltproduktes R-NH2 in Nanomol (Urinkallikrein)” value at Urinkallikrein was 0,52 Nanomol. The “Menge des durch 1 ml Humansputum pro Min. freigesetzten Spaltproduktes R-NH2 in Nanomol (Submandibularis-Kallikrein)” value in assay [1] is 10,7 Nanomol. Also, on Humanplasmin, the “Menge des durch 1 CU-Einheit Humanplasmin pro Min. freigesetzten Spaltproduktes R-NH2 in Nanomol (Humanplasmin)” value was 390 Nanomol. The “Menge des durch 1 NIH-Einheit Thrombin pro Min. freigesetzten Spaltproduktes R-NH2 in Nanomol (Humanthrombin)” value on Humanthrombin is reported as 1,52 Nanomol.
With `CC(C)C[C@H](NC(=O)[C@H](N)c1ccccc1)C(=O)N[C@@H](CCCNC(=N)N)C(=O)Nc1ccc([N+](=O)[O-])cc1` [Beispiel 26, 2HBr.H-D-Ph'Gly-Leu-Arg-pNA] (H-[dPhg]-Leu-Arg-pNA), on Urinkallikrein, the “Menge des durch 1 ml Humanurin pro Min. freigesetzten Spaltproduktes R-NH2 in Nanomol (Urinkallikrein)” value is on record as 0,19 Nanomol. In addition, in assay [1], the “Menge des durch 1 ml Humansputum pro Min. freigesetzten Spaltproduktes R-NH2 in Nanomol (Submandibularis-Kallikrein)” value is on record as 8,3 Nanomol. Moreover, the “Menge des durch 1 CU-Einheit Humanplasmin pro Min. freigesetzten Spaltproduktes R-NH2 in Nanomol (Humanplasmin)” value at Humanplasmin is 194 Nanomol. Besides, at Humanthrombin, the “Menge des durch 1 NIH-Einheit Thrombin pro Min. freigesetzten Spaltproduktes R-NH2 in Nanomol (Humanthrombin)” value is given as 0,8 Nanomol.
As for `N=C(N)NCCC[C@H](NC(=O)[C@@H]1CCCN1C(=O)[C@H](N)C1CCCCC1)C(=O)Nc1ccc([N+](=O)[O-])cc1` [Beispiel 27, 2HBr.H-D-CHG-Pro-Arg-pNA] (H-[dChg]-Pro-Arg-pNA), the “Menge des durch 1 ml Humanurin pro Min. freigesetzten Spaltproduktes R-NH2 in Nanomol (Urinkallikrein)” value on Urinkallikrein is recorded as 0,33 Nanomol. Moreover, the “Menge des durch 1 ml Humansputum pro Min. freigesetzten Spaltproduktes R-NH2 in Nanomol (Submandibularis-Kallikrein)” value in assay [1] is given as 12,9 Nanomol. Also, the “Menge des durch 1 CU-Einheit Humanplasmin pro Min. freigesetzten Spaltproduktes R-NH2 in Nanomol (Humanplasmin)” value at Humanplasmin was 511 Nanomol. Also, the “Menge des durch 1 NIH-Einheit Thrombin pro Min. freigesetzten Spaltproduktes R-NH2 in Nanomol (Humanthrombin)” value on Humanthrombin is reported as 96,3 Nanomol.
As to `N=C(N)NCCC[C@H](NC(=O)[C@@H]1CCCCN1C(=O)[C@H](N)CC1CCC(O)CC1)C(=O)Nc1ccc([N+](=O)[O-])cc1` (stereo partly drawn) [Beispiel 28, 2HBr.H-D-CHT-Pip-Arg-pNA], the “Menge des durch 1 ml Humanurin pro Min. freigesetzten Spaltproduktes R-NH2 in Nanomol (Urinkallikrein)” value at Urinkallikrein is reported as 0 Nanomol. Further, the “Menge des durch 1 ml Humansputum pro Min. freigesetzten Spaltproduktes R-NH2 in Nanomol (Submandibularis-Kallikrein)” value in assay [1] is on record as 9,9 Nanomol. Moreover, the “Menge des durch 1 CU-Einheit Humanplasmin pro Min. freigesetzten Spaltproduktes R-NH2 in Nanomol (Humanplasmin)” value on Humanplasmin came out at 122 Nanomol. Also, the “Menge des durch 1 NIH-Einheit Thrombin pro Min. freigesetzten Spaltproduktes R-NH2 in Nanomol (Humanthrombin)” value on Humanthrombin was 80,4 Nanomol.
In the same order, the values of `NCCCC[C@H](NC(=O)[C@@H]1CCCN1C(=O)[C@H](N)CC1CCCCC1)C(=O)Nc1ccc([N+](=O)[O-])cc1` [Beispiel 29, 2AcOH.H-D-CHA-Pro-Lys-pNA] (H-[dCha]-Pro-Lys-pNA) are 0,71 Nanomol, 4,4 Nanomol, 639 Nanomol and 4,54 Nanomol.
